# According to ChEMBL document CHEMBL3994622, “Design and synthesis of new RAF kinase-inhibiting antiproliferative quinoline derivatives. Part 2: Diarylurea derivatives” (Eur J Med Chem, 2017):
# Assays:
# Format in all cases: functional
# [1] = tested on: NCI-H226; assay: Growth inhibition of human NCI-H226 cells assessed as cell growth at 0.3 uM incubated for 48 hrs by sulforhodamine B assay relative to control; conditions: NCI-H226, 48 h, read-out: Activity
# [2] = tested on: HOP-92; assay: Growth inhibition of human HOP92 cells assessed as cell growth at 0.03 uM incubated for 48 hrs by sulforhodamine B assay relative to control; conditions: HOP-92, 48 h, read-out: Activity
# [3] = tested on: HOP-92; assay: Growth inhibition of human HOP92 cells assessed as cell growth at 0.3 uM incubated for 48 hrs by sulforhodamine B assay relative to control; conditions: HOP-92, 48 h, read-out: Activity
# [4] = tested on: UACC-62; assay: Growth inhibition of human UACC62 cells assessed as cell growth at 3 uM incubated for 48 hrs by sulforhodamine B assay relative to control; conditions: UACC-62, 48 h, read-out: Activity
# [5] = tested on: NCI-H226; assay: Growth inhibition of human NCI-H226 cells assessed as cell growth at 30 uM incubated for 48 hrs by sulforhodamine B assay relative to control; conditions: NCI-H226, 48 h, read-out: Activity
# [6] = tested on: SK-MEL-28; assay: Growth inhibition of human SK-MEL-28 cells assessed as cell growth at 0.3 uM incubated for 48 hrs by sulforhodamine B assay relative to control; conditions: SK-MEL-28, 48 h, read-out: Activity
# [7] = tested on: SK-MEL-2; assay: Growth inhibition of human SK-MEL-2 cells assessed as cell growth at 0.3 uM incubated for 48 hrs by sulforhodamine B assay relative to control; conditions: SK-MEL-2, 48 h, read-out: Activity
# [8] = tested on: M14; assay: Growth inhibition of human M14 cells assessed as cell growth at 3 uM incubated for 48 hrs by sulforhodamine B assay relative to control; conditions: M14, 48 h, read-out: Activity
# [9] = tested on: SF-539; assay: Growth inhibition of human SF539 cells assessed as cell growth at 0.03 uM incubated for 48 hrs by sulforhodamine B assay relative to control; conditions: SF-539, 48 h, read-out: Activity
# [10] = tested on: SK-MEL-2; assay: Growth inhibition of human SK-MEL-2 cells assessed as cell growth at 3 uM incubated for 48 hrs by sulforhodamine B assay relative to control; conditions: SK-MEL-2, 48 h, read-out: Activity
# [11] = tested on: MDA-MB-231; assay: Growth inhibition of human MDA-MB-231 cells assessed as cell growth at 3 uM incubated for 48 hrs by sulforhodamine B assay relative to control; conditions: MDA-MB-231, 48 h, read-out: Activity
# [12] = tested on: SF-268; assay: Growth inhibition of human SF268 cells assessed as cell growth at 3 uM incubated for 48 hrs by sulforhodamine B assay relative to control; conditions: SF-268, 48 h, read-out: Activity
# [13] = tested on: SK-MEL-28; assay: Growth inhibition of human SK-MEL-28 cells assessed as cell growth at 3 uM incubated for 48 hrs by sulforhodamine B assay relative to control; conditions: SK-MEL-28, 48 h, read-out: Activity
# [14] = tested on: NCI-H23; assay: Growth inhibition of human NCI-H23 cells assessed as cell growth at 0.03 uM incubated for 48 hrs by sulforhodamine B assay relative to control; conditions: NCI-H23, 48 h, read-out: Activity
# [15] = tested on: UACC-257; assay: Growth inhibition of human UACC257 cells assessed as cell growth at 0.3 uM incubated for 48 hrs by sulforhodamine B assay relative to control; conditions: UACC-257, 48 h, read-out: Activity
# [16] = tested on: T47D; assay: Growth inhibition of human T47D cells assessed as cell growth at 0.003 uM incubated for 48 hrs by sulforhodamine B assay relative to control; conditions: read-out: Activity
# [17] = tested on: HT-29; assay: Growth inhibition of human HT-29 cells assessed as cell growth at 3 uM incubated for 48 hrs by sulforhodamine B assay relative to control; conditions: HT-29, 48 h, read-out: Activity
# [18] = tested on: OVCAR-3; assay: Growth inhibition of human OVCAR3 cells assessed as cell growth at 3 uM incubated for 48 hrs by sulforhodamine B assay relative to control; conditions: OVCAR-3, 48 h, read-out: Activity
# [19] = tested on: T47D; assay: Growth inhibition of human T47D cells assessed as cell growth at 0.03 uM incubated for 48 hrs by sulforhodamine B assay relative to control; conditions: read-out: Activity
# [20] = tested on: K562; assay: Growth inhibition of human K562 cells assessed as cell growth at 3 uM incubated for 48 hrs by sulforhodamine B assay relative to control; conditions: K562, 48 h, read-out: Activity
# [21] = tested on: MDA-MB-435; assay: Growth inhibition of human MDA-MB-435 cells assessed as cell growth at 10 uM incubated for 48 hrs by sulforhodamine B assay relative to control; conditions: MDA-MB-435, 48 h, read-out: Activity
# [22] = tested on: K562; assay: Growth inhibition of human K562 cells assessed as cell growth at 0.1 uM incubated for 48 hrs by sulforhodamine B assay relative to control; conditions: K562, 48 h, read-out: Activity
# [23] = tested on: COLO 205; assay: Growth inhibition of human COLO205 cells assessed as cell growth at 1 uM incubated for 48 hrs by sulforhodamine B assay relative to control; conditions: COLO 205, 48 h, read-out: Activity
# [24] = tested on: UACC-62; assay: Growth inhibition of human UACC62 cells assessed as cell growth at 0.01 uM incubated for 48 hrs by sulforhodamine B assay relative to control; conditions: UACC-62, 48 h, read-out: Activity
# [25] = tested on: IGROV-1; assay: Growth inhibition of human IGROV1 cells assessed as cell growth at 10 uM incubated for 48 hrs by sulforhodamine B assay relative to control; conditions: IGROV-1, 48 h, read-out: Activity
# [26] = tested on: UACC-62; assay: Growth inhibition of human UACC62 cells assessed as cell growth at 0.1 uM incubated for 48 hrs by sulforhodamine B assay relative to control; conditions: UACC-62, 48 h, read-out: Activity
# [27] = tested on: UACC-62; assay: Growth inhibition of human UACC62 cells assessed as cell growth at 100 uM incubated for 48 hrs by sulforhodamine B assay relative to control; conditions: UACC-62, 48 h, read-out: Activity
# [28] = tested on: KM12; assay: Growth inhibition of human KM12 cells assessed as cell growth at 10 uM incubated for 48 hrs by sulforhodamine B assay relative to control; conditions: KM12, 48 h, read-out: Activity
# [29] = tested on: HL-60(TB); assay: Growth inhibition of human HL-60(TB) cells assessed as cell growth at 100 uM incubated for 48 hrs by sulforhodamine B assay relative to control; conditions: HL-60, 48 h, read-out: Activity
# [30] = tested on: COLO 205; assay: Growth inhibition of human COLO205 cells assessed as cell growth at 0.1 uM incubated for 48 hrs by sulforhodamine B assay relative to control; conditions: COLO 205, 48 h, read-out: Activity
# [31] = tested on: M14; assay: Growth inhibition of human M14 cells assessed as cell growth at 1 uM incubated for 48 hrs by sulforhodamine B assay relative to control; conditions: M14, 48 h, read-out: Activity
# [32] = tested on: NCI-H522; assay: Growth inhibition of human NCI-H522 cells assessed as cell growth at 0.1 uM incubated for 48 hrs by sulforhodamine B assay relative to control; conditions: NCI-H522, 48 h, read-out: Activity
# [33] = tested on: OVCAR-5; assay: Growth inhibition of human OVCAR5 cells assessed as cell growth at 0.01 uM incubated for 48 hrs by sulforhodamine B assay relative to control; conditions: OVCAR-5, 48 h, read-out: Activity
# [34] = tested on: OVCAR-8; assay: Growth inhibition of human OVCAR8 cells assessed as cell growth at 100 uM incubated for 48 hrs by sulforhodamine B assay relative to control; conditions: OVCAR-8, 48 h, read-out: Activity
# [35] = tested on: MDA-MB-231; assay: Growth inhibition of human MDA-MB-231 cells assessed as cell growth at 10 uM incubated for 48 hrs by sulforhodamine B assay relative to control; conditions: MDA-MB-231, 48 h, read-out: Activity
SMILES,growth at 0.3 µM [1],growth at 0.03 µM [2],growth at 0.3 µM [3],growth at 3 µM [4],growth at 30 µM [5],growth at 0.3 µM [6],growth at 0.3 µM [7],growth at 3 µM [8],growth at 0.03 µM [9],growth at 3 µM [10],growth at 3 µM [11],growth at 3 µM [12],growth at 3 µM [13],growth at 0.03 µM [14],growth at 0.3 µM [15],growth at 0.003 µM [16],growth at 3 µM [17],growth at 3 µM [18],growth at 0.03 µM [19],growth at 3 µM [20],other results
COc1cc2cc(Oc3ccc(NC(=O)Nc4ccc(Cl)c(C(F)(F)F)c4)cc3)c(C)nc2cc1OC,106%,89%,84%,28%,-49%,91%,101%,18%,100%,-29%,-29%,26%,27%,93%,83%,94%,8%,14%,94%,12%,
COc1cc2cc(Oc3ccc(NC(=O)Nc4ccc(Cl)c(Cl)c4)cc3)c(C)nc2cc1OC,,,,,,,,,,,,,,,,,,,,,growth at 10 µM [21]: 13%; growth at 0.1 µM [22]: 107%; growth at 1 µM [23]: 109%; growth at 0.01 µM [24]: 94%; growth at 10 µM [25]: 30%; growth at 0.1 µM [26]: 89%; growth at 100 µM [27]: -63%; growth at 10 µM [28]: 8%; growth at 100 µM [29]: -41%; growth at 0.1 µM [30]: 107%; growth at 1 µM [31]: 83%; growth at 0.1 µM [32]: 99%; growth at 0.01 µM [33]: 103%; growth at 100 µM [34]: -100%; growth at 10 µM [35]: 8%
Cc1nc2cc(O)c(O)cc2cc1Oc1ccc(NC(=O)Nc2ccc(Cl)c(Cl)c2)cc1,97%,80%,77%,91%,9%,87%,118%,86%,105%,107%,41%,85%,92%,92%,92%,102%,98%,107%,102%,76%,
COc1cc2cc(Oc3ccc(NC(=O)Nc4cc(C(F)(F)F)cc(C(F)(F)F)c4)cc3)c(C)nc2cc1OC,,,,,,,,,,,,,,,,,,,,,growth at 10 µM [21]: -49%; growth at 0.1 µM [22]: 108%; growth at 1 µM [23]: 92%; growth at 0.01 µM [24]: 90%; growth at 10 µM [25]: -55%; growth at 0.1 µM [26]: 96%; growth at 100 µM [27]: -79%; growth at 10 µM [28]: -75%; growth at 100 µM [29]: -56%; growth at 0.1 µM [30]: 100%; growth at 1 µM [31]: 50%; growth at 0.1 µM [32]: 77%; growth at 0.01 µM [33]: 87%; growth at 100 µM [34]: -43%; growth at 10 µM [35]: -83%
